{
  "source": "patent US20110021470A1",
  "about": "“METHODS FOR TREATING CANCER COMPRISING THE ADMINISTRATION OF A VITAMIN D COMPOUND AND AN ADDITIONAL THERAPEUTIC AGENT, AND COMPOSITIONS CONTAINING THE SAME” (Cougar Biotechnology, Inc., priority 2006, published 2011)",
  "origin": "cited, not measured here",
  "key": {"[1]": {"conditions": "in vivo"}, "[2]": {"conditions": "in vivo", "remark": "listed apart in the source"}, "[3]": {"conditions": "oral lipid formulations (medium chain triglyceride, long chain triglyceride) compared with a formulation containing propylene glycol"}, "[4]": {"test_system": "cell growth and differentiation"}},
  "data": [
    {"substance": "1(S),3(R)-dihydroxy-20(R)-(5′-ethyl-5′-hydroxyhepta-1′(E),3′(E)-dien-1′-yl)-9,10-secopregna-5(Z),7(E),-10(19)-triene [Seocalcitol]", "values": [
      {"measurement": "biological half-life", "setting": "[1]", "value": "suitable for systematic use"},
      {"measurement": "calcemic activity", "setting": "[2]", "value": "low"},
      {"measurement": "calcemic activity relative to 1α,25-dihydroxycholecalciferol", "setting": "[2]; versus 1α,25-dihydroxycholecalciferol", "value": "approximately 50 % weaker"},
      {"measurement": "bioavailability of seocalcitol", "setting": "[3]", "value": "twofold higher"},
      {"measurement": "anti-proliferative activity", "setting": "[4]", "value": "strong"},
      {"measurement": "potency in regulation of cell growth and differentiation relative to 1α,25-dihydroxycholecalciferol", "setting": "[4]; in vitro and in vivo, versus 1α,25-dihydroxycholecalciferol", "value": "50-200 times more potent"}
    ]}
  ]
}
